The record followed here is ChEMBL document CHEMBL1130454, “Synthesis and antirheumatic activity of novel tetrahydroquinoline-8-carboxylic acid derivatives” (1997).

Holding throughout (type): functional
Assay [1] deals with Rattus norvegicus. The assay is described as follows: Tested for edema suppression rate with respect to control value in adjuvant arthritis rat; Range = 0-20%.
For assay [2], the system named is Rattus norvegicus. Briefly: Tested for edema suppression rate with respect to control value in adjuvant arthritis rat at a dose of 10 mg/Kg; Range = 41-50%.
The subject of assay [3] is Rattus norvegicus. The assay is described as follows: Tested for edema suppression rate with respect to control value in adjuvant arthritis rat at a dose of 50 mg/Kg; Range = 21-30%.
Assay [4] concerns Rattus norvegicus. The assay is described as follows: Tested for edema suppression rate with respect to control value in adjuvant arthritis rat at a dose of 50 mg/Kg; Range = 31-40%.
Assay [5] has as its system Rattus norvegicus. The assay is described as follows: Tested for edema suppression rate with respect to control value in adjuvant arthritis rat at a dose of 10 mg/Kg; Range = 21-30%.
The subject of assay [6] is Rattus norvegicus. The assay is described as follows: Tested for edema suppression rate with respect to control value in adjuvant arthritis rat at a dose of 50 mg/Kg; Range = >50%.
Assay [7] has as its system Rattus norvegicus. The assay is described as follows: Tested for edema suppression rate with respect to control value in adjuvant arthritis rat at a dose of 10 mg/Kg; Range = 31-40%.

Take `O=C(O)c1cc([N+](=O)[O-])ccc1NCc1ccccc1`: the Inhibition in assay [1] was determined as 20%.
As for `O=C(O)Cc1cc2c(c(C(=O)O)c1)NCCC2`, the inhibition in vivo at 10 mg/kg in assay [2] amounted to 50%.
For `Nc1ccc(Cl)cc1C(=O)O`, in assay [1], the Inhibition was found to be 20%.
With `O=C(O)c1cc(Cl)cc2c1NCCS2`, in assay [1], the Inhibition turned out to be 20%.
As for `O=C(O)c1cc(Br)c(Cl)c2c1NCCO2`, the inhibition in vivo at 50 mg/kg in assay [3] was determined as 30%.
On to `CS(=O)(=O)Nc1cc2c(c(C(=O)O)c1)NCCCC2`, for which, in assay [4], the inhibition in vivo at 50 mg/kg came to 40%.
Turning to `O=C(O)c1cc([N+](=O)[O-])cc2c1NCC2`, in assay [1], the Inhibition is 20%.
For the molecule `O=C(O)c1cc([N+](=O)[O-])cc2c1NC(c1ccccc1)CC2` (stereo unspecified), the Inhibition in assay [1] amounted to 20%.
Regarding `Nc1ccc([N+](=O)[O-])cc1C(=O)O`, the inhibition in vivo at 10 mg/kg in assay [5] was determined as 30%.
In the case of `O=C(O)c1cc([N+](=O)[O-])cc2c1NCCO2`, the Inhibition in assay [1] was found to be 20%.
For `CNc1ccc([N+](=O)[O-])cc1C(=O)O`, the inhibition in vivo at 50 mg/kg in assay [4] stood at 40%.
Take `O=C(O)c1cc([N+](=O)[O-])cc2c1NCCC2`: the inhibition in vivo at 50 mg/kg in assay [6] is more than 50%.
Take `O=C(O)c1cccc2c1NC(c1ccccc1)CO2` (stereo unspecified): in assay [7], the inhibition in vivo at 10 mg/kg turned out to be 40%.
On the same count and under the same terms, to `O=C(O)c1cc2c(c(C(=O)O)c1)NCCC2` belongs 40%.
Turning to `O=C(O)c1cc2c(c(C(=O)O)c1)NCCS2`, the Inhibition in assay [1] was 20%.
With `O=C(O)c1cc([N+](=O)[O-])cc2c1NCCCC2`, the inhibition in vivo at 10 mg/kg in assay [5] was found to be 30%.
